Assay results from PubChem BioAssay (NCI).
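Each compound was tested at five concentrations against cells in 96-well plates for 48 hours. Abbreviation: GI50, concentration required for 50% inhibition of growth. TGI: concentration producing complete growth inhibition.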

Key:
Assay in all cases: inhibition of tumour cell growth, NCI panel, 48 h
[1] = system: 786-0 renal
[2] = system: A549 NSCLC
[3] = system: CAKI-1 renal
[4] = system: CCRF-CEM leukemia
[5] = system: COLO 205 colon
[6] = system: DU-145 prostate
[7] = system: EKVX NSCLC
[8] = system: HCC-2998 colon
[9] = system: HCT-15 colon
[10] = system: HL-60(TB) leukemia
[11] = system: HOP-62 NSCLC
[12] = system: HT29 colon
[13] = system: IGROV1 ovarian
[14] = system: K-562 leukemia
[15] = system: KM12 colon
[16] = system: M14 melanoma
[17] = system: MALME-3M melanoma
[18] = system: MCF7 breast
[19] = system: MDA-MB-231 breast
[20] = system: MDA-N
[21] = system: MOLT-4 leukemia
[22] = system: NCI-H23 lung
[23] = system: OVCAR-8 ovarian
[24] = system: PC-3 prostate
[25] = system: RPMI-8226 leukemia
[26] = system: RXF 393 renal
[27] = system: SF-268 CNS
[28] = system: SF-295 CNS
[29] = system: SK-MEL-28 melanoma
[30] = system: SK-MEL-5 melanoma
[31] = system: SK-OV-3 ovarian
[32] = system: SN12C renal
[33] = system: SNB-75 CNS
[34] = system: SR leukemia
[35] = system: SW-620 colon
[36] = system: T-47D breast
[37] = system: TK-10 renal
[38] = system: UACC-257 melanoma
[39] = system: UACC-62 melanoma
[40] = system: A498 renal
[41] = system: ACHN renal
[42] = system: HCT-116 colon
[43] = system: HOP-92 NSCLC
[44] = system: HS 578T breast
[45] = system: LOX IMVI melanoma
[46] = system: MDA-MB-435
[47] = system: NCI-H226 lung
[48] = system: NCI/ADR-RES ovarian
[49] = system: OVCAR-5 ovarian
[50] = system: SF-539 CNS
[51] = system: SK-MEL-2 melanoma
[52] = system: SNB-19 CNS
[53] = system: U251 CNS
[54] = system: UO-31 renal
[55] = system: NCI-H460 lung
[56] = system: NCI-H522 lung
[57] = system: OVCAR-3 ovarian
[58] = system: OVCAR-4 ovarian
[59] = system: BT-549 breast

## COc1ccc(C(=O)/C=C/c2ccc(OCC(=O)N3CCN(c4ccccc4)CC3)cc2)cc1OC
[1]
  TGI: > 10 µM
[2]
  TGI: > 10 µM
[3]
  TGI: > 10 µM
[4]
  TGI: 7.21 µM
[5]
  TGI: > 10 µM
[6]
  TGI: > 10 µM
[7]
  TGI: > 10 µM
[8]
  TGI: > 10 µM
[9]
  TGI: > 10 µM
[10]
  TGI: > 10 µM
[11]
  TGI: > 10 µM
[12]
  TGI: > 10 µM
[13]
  TGI: > 10 µM
[14]
  TGI: > 10 µM
[15]
  TGI: > 10 µM
[16]
  TGI: > 10 µM
[17]
  TGI: > 10 µM
[18]
  TGI: > 10 µM
[19]
  TGI: > 10 µM
[20]
  TGI: > 10 µM
[21]
  TGI: 7.06 µM
[22]
  TGI: 5.55 µM
[23]
  TGI: > 10 µM
[24]
  TGI: > 10 µM
[25]
  TGI: > 10 µM
[26]
  TGI: 3.86 µM
[27]
  TGI: > 10 µM
[28]
  TGI: > 10 µM
[29]
  TGI: > 10 µM
[30]
  TGI: > 10 µM
[31]
  TGI: > 10 µM
[32]
  TGI: > 10 µM
[33]
  TGI: 8.75 µM
[34]
  TGI: 6.47 µM
[35]
  TGI: > 10 µM
[36]
  TGI: > 10 µM
[37]
  TGI: > 10 µM
[38]
  TGI: > 10 µM
[39]
  TGI: > 10 µM

## CCOC(=O)C1C(c2ccccc2)C2(C#N)C(=N)OC1(C)C2(C#N)C#N (stereo unspecified)
[1]
  TGI: 26.4 µM
[40]
  TGI: 97.6 µM
[2]
  TGI: > 100 µM
[41]
  TGI: 50.8 µM
[3]
  TGI: 20.3 µM
[4]
  TGI: 99.7 µM
[5]
  TGI: 31.5 µM
[6]
  TGI: > 100 µM
[7]
  TGI: > 100 µM
[8]
  TGI: 27 µM
[42]
  TGI: 35.7 µM
[9]
  TGI: > 100 µM
[10]
  TGI: 55.7 µM
[43]
  TGI: 48.6 µM
[44]
  TGI: > 100 µM
[12]
  TGI: 29.4 µM
[13]
  TGI: 37.8 µM
[14]
  TGI: 48.8 µM
[45]
  TGI: 29.4 µM
[16]
  TGI: > 100 µM
[17]
  TGI: 54.3 µM
[18]
  TGI: > 100 µM
[19]
  TGI: 26.7 µM
[46]
  TGI: 51.6 µM
[20]
  TGI: 27.9 µM
[21]
  TGI: 56 µM
[47]
  TGI: > 100 µM
[22]
  TGI: 37 µM
[48]
  TGI: 85.9 µM
[49]
  TGI: 72.6 µM
[23]
  TGI: 80.4 µM
[24]
  TGI: > 100 µM
[25]
  TGI: 42.6 µM
[26]
  TGI: 35.5 µM
[27]
  TGI: 94 µM
[28]
  TGI: > 100 µM
[50]
  TGI: 37.4 µM
[51]
  TGI: 59.6 µM
[30]
  TGI: 25.1 µM
[31]
  TGI: > 100 µM
[52]
  TGI: > 100 µM
[33]
  TGI: 34.7 µM
[35]
  TGI: > 100 µM
[36]
  TGI: > 100 µM
[37]
  TGI: 69.7 µM
[53]
  TGI: > 100 µM
[38]
  TGI: 54.2 µM
[39]
  TGI: 82.6 µM
[54]
  TGI: 31.4 µM

## CCOC(=O)c1sc2c(c1OC(=O)c1ccc(Cl)cc1Cl)c(=O)n(-c1ccccc1)c(=S)n2-c1ccccc1
[1]
  TGI: > 100 µM
[40]
  TGI: 46.1 µM
[2]
  TGI: > 100 µM
[41]
  TGI: > 100 µM
[3]
  TGI: > 100 µM
[4]
  TGI: > 100 µM
[5]
  TGI: 35.4 µM
[6]
  TGI: > 100 µM
[7]
  TGI: 97.2 µM
[8]
  TGI: > 74.6 µM
[42]
  TGI: > 78.5 µM
[9]
  TGI: 38.6 µM
[10]
  TGI: 30.9 µM
[11]
  TGI: > 100 µM
[43]
  TGI: 26 µM
[44]
  TGI: > 100 µM
[12]
  TGI: > 77.5 µM
[13]
  TGI: > 40.9 µM
[14]
  TGI: > 100 µM
[15]
  TGI: > 42.3 µM
[45]
  TGI: > 81.1 µM
[16]
  TGI: > 100 µM
[17]
  TGI: 66.3 µM
[18]
  TGI: > 100 µM
[19]
  TGI: > 90.8 µM
[46]
  TGI: > 100 µM
[20]
  TGI: 68.7 µM
[21]
  TGI: 14.5 µM
[47]
  TGI: > 33.6 µM
[22]
  TGI: > 82.6 µM
[55]
  TGI: > 55 µM
[56]
  TGI: > 100 µM
[48]
  TGI: > 47.8 µM
[57]
  TGI: > 100 µM
[58]
  TGI: > 100 µM
[49]
  TGI: > 100 µM
[23]
  TGI: > 100 µM
[24]
  TGI: > 100 µM
[25]
  TGI: > 54.5 µM
[26]
  TGI: > 100 µM
[27]
  TGI: > 100 µM
[28]
  TGI: > 100 µM
[50]
  TGI: > 100 µM
[51]
  TGI: 18.6 µM
[29]
  TGI: > 100 µM
[30]
  TGI: 51.1 µM
[31]
  TGI: > 81.2 µM
[32]
  TGI: 22.6 µM
[52]
  TGI: > 100 µM
[33]
  TGI: > 100 µM
[35]
  TGI: > 100 µM
[36]
  TGI: > 100 µM
[37]
  TGI: > 100 µM
[53]
  TGI: > 56.1 µM
[38]
  TGI: > 100 µM
[39]
  TGI: > 80.2 µM
[54]
  TGI: > 100 µM

## CCN1C2=C(SC(=S)C1=C1SC(C(=O)c3ccccc3)=C(C(=O)c3ccccc3)S1)SC(=Nc1ccccc1)C2=O
[1]
  GI50: 1.53 µM
  TGI: > 68 µM
[40]
  GI50: 28.1 µM
  TGI: > 100 µM
[2]
  GI50: > 100 µM
  TGI: > 100 µM
[41]
  GI50: 37.3 µM
  TGI: > 100 µM
[59]
  GI50: 5.2 µM
  TGI: 42.7 µM
[3]
  GI50: 48 µM
  TGI: > 100 µM
[4]
  GI50: 0.633 µM
  TGI: > 100 µM
[5]
  GI50: > 100 µM
  TGI: > 100 µM
[6]
  GI50: 24.6 µM
  TGI: > 100 µM
[7]
  GI50: 80.4 µM
  TGI: > 100 µM
[8]
  GI50: > 100 µM
  TGI: > 100 µM
[42]
  GI50: 2.66 µM
  TGI: 38.7 µM
[9]
  GI50: > 100 µM
  TGI: > 100 µM
[10]
  GI50: > 100 µM
  TGI: > 100 µM
[11]
  GI50: 21.7 µM
  TGI: 76.2 µM
[43]
  GI50: 22.5 µM
  TGI: > 100 µM
[44]
  GI50: 2.58 µM
  TGI: 72.9 µM
[12]
  GI50: 16.5 µM
  TGI: > 100 µM
[13]
  GI50: 23 µM
  TGI: > 100 µM
[14]
  GI50: 4.91 µM
  TGI: > 100 µM
[15]
  GI50: 51 µM
  TGI: > 100 µM
[45]
  GI50: 1.43 µM
  TGI: 7.06 µM
[16]
  GI50: > 100 µM
  TGI: > 100 µM
[17]
  GI50: 21.2 µM
  TGI: > 100 µM
[18]
  GI50: 7.44 µM
  TGI: > 100 µM
[19]
  GI50: 13.6 µM
  TGI: > 100 µM
[46]
  GI50: 9.41 µM
  TGI: > 100 µM
[21]
  GI50: 0.625 µM
  TGI: > 22.2 µM
[47]
  GI50: 25.7 µM
  TGI: > 100 µM
[22]
  GI50: 5.43 µM
  TGI: > 100 µM
[55]
  GI50: 27.8 µM
  TGI: > 100 µM
[56]
  GI50: 5.43 µM
  TGI: > 20.8 µM
[48]
  GI50: > 73.9 µM
  TGI: > 100 µM
[57]
  GI50: 30.9 µM
  TGI: > 100 µM
[58]
  GI50: > 100 µM
  TGI: > 100 µM
[49]
  GI50: > 100 µM
  TGI: > 100 µM
[23]
  GI50: 2.34 µM
  TGI: > 67.5 µM
[24]
  GI50: 17.6 µM
  TGI: > 100 µM
[25]
  GI50: 2.13 µM
  TGI: > 100 µM
[26]
  GI50: 9.09 µM
  TGI: > 45.3 µM
[27]
  GI50: 8.24 µM
  TGI: > 100 µM
[28]
  GI50: 11.3 µM
  TGI: > 90.7 µM
[50]
  GI50: 14.4 µM
  TGI: > 100 µM
[51]
  GI50: 7.74 µM
  TGI: > 47.3 µM
[29]
  GI50: 26.4 µM
  TGI: > 100 µM
[30]
  GI50: > 70.8 µM
  TGI: > 100 µM
[31]
  GI50: > 96.7 µM
  TGI: > 100 µM
[32]
  GI50: 46 µM
  TGI: > 100 µM
[52]
  GI50: 53.4 µM
  TGI: > 100 µM
[33]
  GI50: 12.6 µM
  TGI: > 63.4 µM
[34]
  GI50: 3.19 µM
  TGI: > 100 µM
[35]
  GI50: 1.14 µM
  TGI: 8.38 µM
[36]
  GI50: 19.6 µM
  TGI: > 100 µM
[37]
  GI50: 13.3 µM
  TGI: > 83.7 µM
[53]
  GI50: 3.39 µM
  TGI: > 60.5 µM
[38]
  GI50: > 100 µM
  TGI: > 100 µM
[39]
  GI50: 12 µM
  TGI: > 70.1 µM
[54]
  GI50: 5.9 µM
  TGI: > 100 µM
